According to the NIST ThermoML archive (doi:10.1016/j.jct.2007.04.002):
Numbers after ± are expanded uncertainties.

Tests used:
[1] = 101.33 kPa, Liquid, Not reported.
[2] = excess molar enthalpy (molar enthalpy of mixing); xn = mol fraction of the nth substance listed; settings: 101 kPa, Liquid, Calvet calorimetry

CCCCCC(C)C [2-methylheptane]
molar volume ([1]; 288.05 K): 0.0001626 ± 3.3e-07 m3/mol | molar volume ([1]; 298.15 K): 0.0001636 ± 3.3e-07 m3/mol

CCCCCC(C)C [2-methylheptane] + FC(F)(F)C(F)(F)C(F)(F)C(F)(F)C(F)(F)C(F)(F)F
excess molar enthalpy ([2]; 288.05 K, x2 = 0): 0 ± 0.00956 kcal/mol | excess molar enthalpy ([2]; 288.05 K, x2 = 0.05): 0.124 ± 0.00956 kcal/mol | excess molar enthalpy ([2]; 288.05 K, x2 = 0.1): 0.223 ± 0.0098 kcal/mol | excess molar enthalpy ([2]; 288.05 K, x2 = 0.15): 0.3 ± 0.0098 kcal/mol | excess molar enthalpy ([2]; 288.05 K, x2 = 0.2): 0.359 ± 0.01 kcal/mol | excess molar enthalpy ([2]; 288.05 K, x2 = 0.25): 0.404 ± 0.01 kcal/mol | excess molar enthalpy ([2]; 288.05 K, x2 = 0.3): 0.438 ± 0.01 kcal/mol | excess molar enthalpy ([2]; 288.05 K, x2 = 0.35): 0.462 ± 0.0103 kcal/mol | excess molar enthalpy ([2]; 288.05 K, x2 = 0.4): 0.478 ± 0.0103 kcal/mol | excess molar enthalpy ([2]; 288.05 K, x2 = 0.45): 0.488 ± 0.0103 kcal/mol | excess molar enthalpy ([2]; 288.05 K, x2 = 0.5): 0.491 ± 0.0103 kcal/mol | excess molar enthalpy ([2]; 288.05 K, x2 = 0.55): 0.488 ± 0.0103 kcal/mol | excess molar enthalpy ([2]; 288.05 K, x2 = 0.6): 0.478 ± 0.0103 kcal/mol | excess molar enthalpy ([2]; 288.05 K, x2 = 0.65): 0.461 ± 0.0103 kcal/mol | excess molar enthalpy ([2]; 288.05 K, x2 = 0.7): 0.436 ± 0.01 kcal/mol | excess molar enthalpy ([2]; 288.05 K, x2 = 0.75): 0.401 ± 0.01 kcal/mol | excess molar enthalpy ([2]; 288.05 K, x2 = 0.8): 0.354 ± 0.01 kcal/mol | excess molar enthalpy ([2]; 288.05 K, x2 = 0.85): 0.293 ± 0.0098 kcal/mol | excess molar enthalpy ([2]; 288.05 K, x2 = 0.9): 0.216 ± 0.0098 kcal/mol | excess molar enthalpy ([2]; 288.05 K, x2 = 0.95): 0.119 ± 0.00956 kcal/mol | excess molar enthalpy ([2]; 298.15 K, x2 = 0): 0 ± 0.00956 kcal/mol | excess molar enthalpy ([2]; 298.15 K, x2 = 0.05): 0.129 ± 0.00956 kcal/mol | excess molar enthalpy ([2]; 298.15 K, x2 = 0.1): 0.231 ± 0.0098 kcal/mol | excess molar enthalpy ([2]; 298.15 K, x2 = 0.15): 0.313 ± 0.0098 kcal/mol | excess molar enthalpy ([2]; 298.15 K, x2 = 0.2): 0.376 ± 0.01 kcal/mol | excess molar enthalpy ([2]; 298.15 K, x2 = 0.25): 0.425 ± 0.01 kcal/mol | excess molar enthalpy ([2]; 298.15 K, x2 = 0.3): 0.462 ± 0.0103 kcal/mol | excess molar enthalpy ([2]; 298.15 K, x2 = 0.35): 0.488 ± 0.0103 kcal/mol | excess molar enthalpy ([2]; 298.15 K, x2 = 0.4): 0.506 ± 0.0103 kcal/mol | excess molar enthalpy ([2]; 298.15 K, x2 = 0.45): 0.516 ± 0.0103 kcal/mol | excess molar enthalpy ([2]; 298.15 K, x2 = 0.5): 0.52 ± 0.0103 kcal/mol | excess molar enthalpy ([2]; 298.15 K, x2 = 0.55): 0.516 ± 0.0103 kcal/mol | excess molar enthalpy ([2]; 298.15 K, x2 = 0.6): 0.505 ± 0.0103 kcal/mol | excess molar enthalpy ([2]; 298.15 K, x2 = 0.65): 0.487 ± 0.0103 kcal/mol | excess molar enthalpy ([2]; 298.15 K, x2 = 0.7): 0.46 ± 0.01 kcal/mol | excess molar enthalpy ([2]; 298.15 K, x2 = 0.75): 0.422 ± 0.01 kcal/mol | excess molar enthalpy ([2]; 298.15 K, x2 = 0.8): 0.372 ± 0.01 kcal/mol | excess molar enthalpy ([2]; 298.15 K, x2 = 0.85): 0.307 ± 0.0098 kcal/mol | excess molar enthalpy ([2]; 298.15 K, x2 = 0.9): 0.226 ± 0.0098 kcal/mol | excess molar enthalpy ([2]; 298.15 K, x2 = 0.95): 0.124 ± 0.00956 kcal/mol

C1CCCCC1 [cyclohexane]
molar volume ([1]; 298.15 K): 0.0001086 ± 2.2e-07 m3/mol

C1CCCCC1 [cyclohexane] + FC(F)(F)C(F)(F)C(F)(F)C(F)(F)C(F)(F)C(F)(F)F
excess molar enthalpy ([2]; 298.15 K, x2 = 0): 0 ± 0.00956 kcal/mol

CCCCCCC [heptane] + FC(F)(F)C(F)(F)C(F)(F)C(F)(F)C(F)(F)C(F)(F)F
excess molar enthalpy ([2]; 298.15 K, x2 = 0): 0 ± 0.00956 kcal/mol

FC(F)(F)C(F)(F)C(F)(F)C(F)(F)C(F)(F)C(F)(F)C(F)(F)F [hexadecafluoroheptane] + CCCCCC
excess molar enthalpy ([2]; 298.15 K, x1 = 0.05): 0.15 ± 0.00956 kcal/mol | excess molar enthalpy ([2]; 298.15 K, x1 = 0.1): 0.258 ± 0.0098 kcal/mol | excess molar enthalpy ([2]; 298.15 K, x1 = 0.15): 0.335 ± 0.0098 kcal/mol | excess molar enthalpy ([2]; 298.15 K, x1 = 0.2): 0.39 ± 0.01 kcal/mol | excess molar enthalpy ([2]; 298.15 K, x1 = 0.25): 0.429 ± 0.01 kcal/mol | excess molar enthalpy ([2]; 298.15 K, x1 = 0.3): 0.456 ± 0.01 kcal/mol | excess molar enthalpy ([2]; 298.15 K, x1 = 0.35): 0.474 ± 0.0103 kcal/mol | excess molar enthalpy ([2]; 298.15 K, x1 = 0.4): 0.487 ± 0.0103 kcal/mol | excess molar enthalpy ([2]; 298.15 K, x1 = 0.45): 0.495 ± 0.0103 kcal/mol | excess molar enthalpy ([2]; 298.15 K, x1 = 0.5): 0.497 ± 0.0103 kcal/mol | excess molar enthalpy ([2]; 298.15 K, x1 = 0.55): 0.495 ± 0.0103 kcal/mol | excess molar enthalpy ([2]; 298.15 K, x1 = 0.6): 0.485 ± 0.0103 kcal/mol | excess molar enthalpy ([2]; 298.15 K, x1 = 0.65): 0.467 ± 0.0103 kcal/mol | excess molar enthalpy ([2]; 298.15 K, x1 = 0.7): 0.439 ± 0.01 kcal/mol | excess molar enthalpy ([2]; 298.15 K, x1 = 0.75): 0.4 ± 0.01 kcal/mol | excess molar enthalpy ([2]; 298.15 K, x1 = 0.8): 0.348 ± 0.0098 kcal/mol | excess molar enthalpy ([2]; 298.15 K, x1 = 0.85): 0.281 ± 0.0098 kcal/mol | excess molar enthalpy ([2]; 298.15 K, x1 = 0.9): 0.201 ± 0.0098 kcal/mol | excess molar enthalpy ([2]; 298.15 K, x1 = 0.95): 0.107 ± 0.00956 kcal/mol | excess molar enthalpy ([2]; 298.15 K, x1 = 1): 0 ± 0.00956 kcal/mol

CCCCCC [hexane] + FC(F)(F)C(F)(F)C(F)(F)C(F)(F)C(F)(F)C(F)(F)C(F)(F)C(F)(F)F
excess molar enthalpy ([2]; 298.15 K, x2 = 0): 0 ± 0.00956 kcal/mol

CCCCCC [hexane] + FC(F)(F)C(F)(F)C(F)(F)C(F)(F)C(F)(F)C(F)(F)C(F)(F)F
excess molar enthalpy ([2]; 298.15 K, x2 = 0): 0 ± 0.00956 kcal/mol

CCCCCC [hexane] + FC(F)(F)C(F)(F)C(F)(F)C(F)(F)C(F)(F)C(F)(F)F
excess molar enthalpy ([2]; 298.15 K, x2 = 0): 0 ± 0.00956 kcal/mol

CCCCCC [hexane] + FC(F)(F)C(F)(F)C(F)(F)C(F)(F)C(F)(F)F
excess molar enthalpy ([2]; 293.15 K, x2 = 0): 0 ± 0.00956 kcal/mol

FC(F)(F)C(F)(F)C(F)(F)C(F)(F)C(F)(F)C(F)(F)C(F)(F)C(F)(F)F [octadecafluorooctane] + CCCCCC
excess molar enthalpy ([2]; 298.15 K, x1 = 0.05): 0.183 ± 0.00956 kcal/mol | excess molar enthalpy ([2]; 298.15 K, x1 = 0.1): 0.303 ± 0.0098 kcal/mol | excess molar enthalpy ([2]; 298.15 K, x1 = 0.15): 0.379 ± 0.01 kcal/mol | excess molar enthalpy ([2]; 298.15 K, x1 = 0.2): 0.422 ± 0.01 kcal/mol | excess molar enthalpy ([2]; 298.15 K, x1 = 0.25): 0.445 ± 0.01 kcal/mol | excess molar enthalpy ([2]; 298.15 K, x1 = 0.3): 0.455 ± 0.01 kcal/mol | excess molar enthalpy ([2]; 298.15 K, x1 = 0.35): 0.456 ± 0.01 kcal/mol | excess molar enthalpy ([2]; 298.15 K, x1 = 0.4): 0.453 ± 0.01 kcal/mol | excess molar enthalpy ([2]; 298.15 K, x1 = 0.45): 0.448 ± 0.01 kcal/mol | excess molar enthalpy ([2]; 298.15 K, x1 = 0.5): 0.44 ± 0.01 kcal/mol | excess molar enthalpy ([2]; 298.15 K, x1 = 0.55): 0.43 ± 0.01 kcal/mol | excess molar enthalpy ([2]; 298.15 K, x1 = 0.6): 0.415 ± 0.01 kcal/mol | excess molar enthalpy ([2]; 298.15 K, x1 = 0.65): 0.394 ± 0.01 kcal/mol | excess molar enthalpy ([2]; 298.15 K, x1 = 0.7): 0.366 ± 0.01 kcal/mol | excess molar enthalpy ([2]; 298.15 K, x1 = 0.75): 0.327 ± 0.0098 kcal/mol | excess molar enthalpy ([2]; 298.15 K, x1 = 0.8): 0.279 ± 0.0098 kcal/mol | excess molar enthalpy ([2]; 298.15 K, x1 = 0.85): 0.22 ± 0.0098 kcal/mol | excess molar enthalpy ([2]; 298.15 K, x1 = 0.9): 0.152 ± 0.00956 kcal/mol | excess molar enthalpy ([2]; 298.15 K, x1 = 0.95): 0.0767 ± 0.00956 kcal/mol | excess molar enthalpy ([2]; 298.15 K, x1 = 1): 0 ± 0.00956 kcal/mol

CCCCCCCC [octane] + FC(F)(F)C(F)(F)C(F)(F)C(F)(F)C(F)(F)C(F)(F)F
excess molar enthalpy ([2]; 298.15 K, x2 = 0): 0 ± 0.00956 kcal/mol

CCCCC [pentane] + FC(F)(F)C(F)(F)C(F)(F)C(F)(F)C(F)(F)C(F)(F)F
excess molar enthalpy ([2]; 293.15 K, x2 = 0): 0 ± 0.00956 kcal/mol

FC(F)(F)C(F)(F)C(F)(F)C(F)(F)C(F)(F)C(F)(F)F [perfluorohexane]
molar volume ([1]; 288.05 K): 0.0001982 ± 7e-07 m3/mol

FC(F)(F)C(F)(F)C(F)(F)C(F)(F)C(F)(F)C(F)(F)F [perfluorohexane] + C1CCCCC1
excess molar enthalpy ([2]; 298.15 K, x1 = 0.05): 0.177 ± 0.00956 kcal/mol | excess molar enthalpy ([2]; 298.15 K, x1 = 0.1): 0.301 ± 0.0098 kcal/mol | excess molar enthalpy ([2]; 298.15 K, x1 = 0.15): 0.385 ± 0.01 kcal/mol | excess molar enthalpy ([2]; 298.15 K, x1 = 0.2): 0.44 ± 0.01 kcal/mol | excess molar enthalpy ([2]; 298.15 K, x1 = 0.25): 0.475 ± 0.0103 kcal/mol | excess molar enthalpy ([2]; 298.15 K, x1 = 0.3): 0.498 ± 0.0103 kcal/mol | excess molar enthalpy ([2]; 298.15 K, x1 = 0.35): 0.513 ± 0.0103 kcal/mol | excess molar enthalpy ([2]; 298.15 K, x1 = 0.4): 0.522 ± 0.0103 kcal/mol | excess molar enthalpy ([2]; 298.15 K, x1 = 0.45): 0.528 ± 0.0103 kcal/mol | excess molar enthalpy ([2]; 298.15 K, x1 = 0.5): 0.53 ± 0.0103 kcal/mol | excess molar enthalpy ([2]; 298.15 K, x1 = 0.55): 0.528 ± 0.0103 kcal/mol | excess molar enthalpy ([2]; 298.15 K, x1 = 0.6): 0.519 ± 0.0103 kcal/mol | excess molar enthalpy ([2]; 298.15 K, x1 = 0.65): 0.503 ± 0.0103 kcal/mol | excess molar enthalpy ([2]; 298.15 K, x1 = 0.7): 0.476 ± 0.0103 kcal/mol | excess molar enthalpy ([2]; 298.15 K, x1 = 0.75): 0.436 ± 0.01 kcal/mol | excess molar enthalpy ([2]; 298.15 K, x1 = 0.8): 0.382 ± 0.01 kcal/mol | excess molar enthalpy ([2]; 298.15 K, x1 = 0.85): 0.311 ± 0.0098 kcal/mol | excess molar enthalpy ([2]; 298.15 K, x1 = 0.9): 0.224 ± 0.0098 kcal/mol | excess molar enthalpy ([2]; 298.15 K, x1 = 0.95): 0.12 ± 0.00956 kcal/mol | excess molar enthalpy ([2]; 298.15 K, x1 = 1): 0 ± 0.00956 kcal/mol
